Data published in patent US10104891B2 (priority 2014, dated 2018).

Tests used:
Type in all cases: in vivo
[1] = system: Pseudoperonospora cubensis; assay: Test 2: control effect against cucumber downy mildew; settings: Pseudoperonospora cubensis, 120 h, control value vs untreated section
How it was run: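 Protective test: zoospores (1.0×10^4 units/ml) misted one day after applying a 4 ppm suspension (wettable powder diluted in 1/5000 Tween20) to 2-leaf cucumber, Sagami hanjiro. After 16 hr at 22° C humid incubation, leaf lesion area read at day 5, expressed as control value versus untreated leaves.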

Plasmopara viticola = assay: Test 3: control effect against grape downy mildew; settings: Plasmopara viticola, 120 h, control value vs untreated section
How it was run: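 Leaf lesion area, scored 5 days after inoculation and compared with untreated plants, gives the control value. Inoculation used P. viticola zoospores (1.0×10^4 units/ml) with a 16 hr moist incubation at 22° C. It followed by one day a spray of 4 ppm compound (wettable powder in Tween20) onto Neomuscat seedlings.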

Phytophthora infestans = assay: whole plant or invertebrate; settings: Phytophthora infestans, in Solanum lycopersicum, 96 h, read-out: control value (Test 1)
Pythium graminicola = assay: Test 4: control effect against rice damping-off by the Pythium fungus (soil lavage); settings: 1,000 ppm, 2.5 ml test suspension drenched on contaminated soil, rice (koshihikari)
Description: A 10% wettable powder created according to the Pharmaceutical Formulation Example 1 was diluted with a Tween20 solution prepared to a concentration of 1/5000, then the compound of formula [1] was prepared to a concentration of 4 ppm. Further, the compound of formula [1] in Test 4 was adjusted to a concentration of 1,000 ppm.
<Test 4 Test of Control Effect Against Rice Damping-Off by the Pythium Fungus (Soil Lavage)>
Distilled water was added to the flora of Pythium graminicola cultured in bentoglass seed culture and stirred with a mixer, and adjusted the contaminated soil to 5 g of bacteria against 1 kg of soil.
In a cell tray having 31×31 mm^2 per cell, 20 ml of the contaminated soil was filled in each cell, and 3 seeds of rice chaff that has been forced to sprout (Species: koshihikari) were seeded, and 5 ml of soil was added for covering, then 2.5 ml of test suspension was drenched, and the seeds were incubated in a moist chamber adjusted to 28° C. for 72 hr to induce sprouting. Then, in a low temperature room of 5° C., the onset of disease was induced for 2 days, then the disease was nurtured for 14 days in a room of 25° C.
The soil was washed, and the apoptosis strain, growth restrained strain, and a healthy strain were measured and the onset rate was calculated by the following formula. Onset rate=[Σ(onset strain number by level×onset index)/(investigated strain×3)]×100 [Onset Index]
1: Growth restrained strain
Also, the following formula was used to compute the control value from the obtained onset index. control value={1−onset area rate at the section applied the test agent/onset area rate of untreated section}×100 Computational formula of the control value: […]

SMILES	pest or weed control at 4 µg/mL [1] [%]	pest or weed control at 4 µg/mL (Plasmopara viticola) [%]	pest or weed control at 4 µg/mL (Phytophthora infestans) [%]	pest or weed control at 1000 ppm (Pythium graminicola) [%]
Cc1cc(C(F)(F)F)nn1CC(=O)N1CCC(c2nc(C3OCc4c(F)ccc(F)c4CO3)cs2)CC1 [Compound 1-3, 4-[4-(6,9-difluoro-1,5-dihydro-3H-2,4-benzodioxepin-3-yl)-2-thiazolyl]-1-[2-[5-methyl-3-(trifluoromethyl)-1H-pyrazole-1-yl]acetyl]piperidine]	100	100	100	≥ 90
Cc1cc(C(F)(F)F)nn1CC(=O)N1CCC(c2nc(C3OCc4cccc(OS(C)(=O)=O)c4CO3)cs2)CC1 (centres unmarked) [Compound 1-6, 4-[4-(6-methylsulfonyloxy-1,5-dihydro-3H-2,4-benzodioxepin-3-yl)-2-thiazolyl]-1-[2-[5-methyl-3-(trifluoromethyl)-1H-pyrazole-1-yl]acetyl]piperidine]	100	100	100	≥ 90
Cc1cc(C(F)(F)F)nn1CC(=O)N1CCC(c2nc(C3OCc4ccc(F)cc4CO3)cs2)CC1 (centres unmarked) [Compound 1-11, 4-[4-(7-fluoro-1,5-dihydro-3H-2,4-benzodioxepin-3-yl)-2-thiazolyl]-1-[2-[5-methyl-3-(trifluoromethyl)-1H-pyrazole-1-yl]acetyl]piperidine]	100	100	100	≥ 90
Cc1cc(C(F)(F)F)nn1CC(=O)N1CCC(c2nc(C3OCc4cccc(Br)c4CO3)cs2)CC1 (centres unmarked) [Compound 1-15, 4-[4-(6-bromo-1,5-dihydro-3H-2,4-benzodioxepin-3-yl)-2-thiazolyl]-1-[2-[5-methyl-3-(trifluoromethyl)-1H-pyrazole-1-yl]acetyl]piperidine]	100	100	100	≥ 90
CCCCS(=O)(=O)Oc1cccc2c1COC(c1csc(C3CCN(C(=O)Cn4nc(C(F)(F)F)cc4C)CC3)n1)OC2 (centres unmarked) [Compound 1-21, 4-[4-(6-butylsulfonyloxy-1,5-dihydro-3H-2,4-benzodioxepin-3-yl)-2-thiazolyl]-1-[2-[5-methyl-3-(trifluoromethyl)-1H-pyrazole-1-yl]acetyl]piperidine]	100	100	90	≥ 90
CCCS(=O)(=O)Oc1cccc2c1COC(c1csc(C3CCN(C(=O)Cn4nc(C(F)(F)F)cc4C)CC3)n1)OC2 (centres unmarked) [Compound 1-22, 4-[4-(6-propylsulfonyloxy-1,5-dihydro-3H-2,4-benzodioxepin-3-yl)-2-thiazolyl]-1-[2-[5-methyl-3-(trifluoromethyl)-1H-pyrazole-1-yl]acetyl]piperidine]	100	100	100	≥ 90
Cc1cc(C(F)(F)F)nn1CC(=O)N1CCC(c2nc(C3OCc4cccc(Cl)c4CO3)cs2)CC1 (centres unmarked) [Compound 1-23, 4-[4-(6-chloro-1,5-dihydro-3H-2,4-benzodioxepin-3-yl)-2-thiazolyl]-1-[2-[5-methyl-3-(trifluoromethyl)-1H-pyrazole-1-yl]acetyl]piperidine]	100	100	100	≥ 90
Cc1cc(C(F)(F)F)nn1CC(=O)N1CCC(c2nc(C3OCc4c(OS(C)(=O)=O)ccc([N+](=O)[O-])c4CO3)cs2)CC1 (centres unmarked) [Compound 1-32, 4-[4-(6-methylsulfonyloxy-9-nitro-1,5-dihydro-3H-2,4-benzodioxepin-3-yl)-2-thiazolyl]-1-[2-[5-methyl-3-(trifluoromethyl)-1H-pyrazole-1-yl]acetyl]piperidine]	100	100	100	≥ 90
Cc1cc(C(F)(F)F)nn1CC(=O)N1CCC(c2nc(C3OCc4cccc(O)c4CO3)cs2)CC1 (centres unmarked) [Compound 1-33, 4-[4-(6-hydroxy-1,5-dihydro-3H-2,4-benzodioxepin-3-yl)-2-thiazolyl]-1-[2-[5-methyl-3-(trifluoromethyl)-1H-pyrazole-1-yl]acetyl]piperidine]	100	100	100	≥ 90
Cc1cc(C(F)(F)F)nn1CC(=O)N1CCC(c2nc(C3OCc4cccc(OC(=O)C5CC5)c4CO3)cs2)CC1 (centres unmarked) [Compound 1-34, 4-[4-(6-cyclopropylcarbonyloxy-1,5-dihydro-3H-2,4-benzodioxepin-3-yl)-2-thiazolyl]-1-[2-[5-methyl-3-(trifluoromethyl)-1H-pyrazole-1-yl]acetyl]piperidine]	100	100	100	≥ 90
Cc1cc(C(F)(F)F)nn1CC(=O)N1CCC(c2nc(C3OCc4cccc(OS(=O)(=O)C(F)(F)F)c4CO3)cs2)CC1 (centres unmarked) [Compound 1-36, 4-[4-[6-(trifluoromethyl)sulfonyloxy-1,5-dihydro-3H-2,4-benzodioxepin-3-yl]-2-thiazolyl]-1-[2-[5-methyl-3-(trifluoromethyl)-1H-pyrazole-1-yl]acetyl]piperidine]	100	100	100	≥ 90
Cc1cc(C(F)(F)F)nn1CC(=O)N1CCC(c2nc(C3OCc4ccc(Cl)cc4CO3)cs2)CC1 (centres unmarked) [Compound 1-40, 4-[4-(7-chloro-1,5-dihydro-3H-2,4-benzodioxepin-3-yl)-2-thiazolyl]-1-[2-[5-methyl-3-(trifluoromethyl)-1H-pyrazole-1-yl]acetyl]piperidine]	100	100	100	≥ 90
Cc1ccc(OS(C)(=O)=O)c2c1COC(c1csc(C3CCN(C(=O)Cn4nc(C(F)F)cc4C(F)F)CC3)n1)OC2 (centres unmarked) [Compound 1-44, 4-[4-(6-methyl-9-methylsulfonyloxy-1,5-dihydro-3H-2,4-benzodioxepin-3-yl)-2-thiazolyl]-1-[2-[3,5-bis(difluoromethyl)-1H-pyrazole-1-yl]acetyl]piperidine]	100	100	100	≥ 90
Cc1cc(C(F)(F)F)nn1CC(=O)N1CCC(c2nc(C3OCc4ccc(F)c(OS(C)(=O)=O)c4CO3)cs2)CC1 (centres unmarked) [Compound 1-45, 4-[4-(7-fluoro-6-methylsulfonyloxy-1,5-dihydro-3H-2,4-benzodioxepin-3-yl)-2-thiazolyl]-1-[2-[5-methyl-3-(trifluoromethyl)-1H-pyrazole-1-yl]acetyl]piperidine]	100	100	100	≥ 90
Cc1cc(C(F)(F)F)nn1CC(=O)N1CCC(c2nc(C3OCc4cccc(S(C)(=O)=O)c4CO3)cs2)CC1 (centres unmarked) [Compound 1-47, 4-[4-(6-methylsulfonyl-1,5-dihydro-3H-2,4-benzodioxepin-3-yl)-2-thiazolyl]-1-[2-[5-methyl-3-(trifluoromethyl)-1H-pyrazole-1-yl]acetyl]piperidine]	100	100	100	≥ 90
O=C(Cn1nc(C(F)F)cc1C(F)F)N1CCC(c2nc(C3OCc4ccc([N+](=O)[O-])cc4CO3)cs2)CC1 (centres unmarked) [Compound 1-49, 4-[4-(7-nitro-1,5-dihydro-3H-2,4-benzodioxepin-3-yl)-2-thiazolyl]-1-[2-[3,5-bis(difluoromethyl)-1H-pyrazole-1-yl]acetyl]piperidine]	100	100	100	≥ 90
O=C(Cn1nc(C(F)(F)F)cc1C(F)(F)F)N1CCC(c2nc(C3OCc4c(F)ccc(F)c4CO3)cs2)CC1 [Compound 1-50, 4-[4-(6,9-difluoro-1,5-dihydro-3H-2,4-benzodioxepin-3-yl)-2-thiazolyl]-1-[2-[3,5-bis(trifluoromethyl)-1H-pyrazole-1-yl]acetyl]piperidine]	100	100	100	≥ 90
